We go through twelve molecules from ChEMBL document CHEMBL2016536, “New triazole derivatives as antifungal agents: synthesis via click reaction, in vitro evaluation and molecular docking studies” (2012).

Broadly, the MIC80 is an inhibitory concentration at the 80% level, which refers to growth in some studies and to a panel of isolates in others. A lower MIC80 goes with higher susceptibility.

In brackets after ≈: the same amount, converted by molar mass.

Common to all, as to assay type: functional
In one assay the test system is Candida parapsilosis. Kind of assay: Antifungal activity against Candida parapsilosis by microbroth dilution method. To be noted: Lodderomyces parapsilosis. A general note: In broth dilution the organism is exposed to a series of concentrations in liquid medium.
The subject of a further assay is Candida tropicalis. Kind of assay: Antifungal activity against Candida tropicalis by microbroth dilution method.
A further assay concerns Kluyveromyces marxianus. Kind of assay: Antifungal activity against Candida kefyr by microbroth dilution method.
In the next assay the test system is Trichophyton rubrum. Kind of assay: Antifungal activity against Trichophyton rubrum by microbroth dilution method.
The test system of another assay is Aspergillus fumigatus. In words: Antifungal activity against Aspergillus fumigatus by microbroth dilution method.
The test system of assay [1] is Candida albicans. In words: Antifungal activity against Candida albicans SC5314 after 24 hrs by microbroth dilution method. Conditions: SC5314, 24 h.
Assay [2] relates to Candida albicans. In words: Antifungal activity against Candida albicans Y0109 after 24 hrs by microbroth dilution method. Conditions: Y0109, 24 h.
The next assay concerns Cryptococcus neoformans. Kind of assay: Antifungal activity against Cryptococcus neoformans after 72 hrs by microbroth dilution method.

Turning to `OC(Cc1cn(Cc2cccc(Cl)c2)nn1)(Cn1cncn1)c1ccc(F)cc1F` (stereo unspecified), the MIC80 against Candida parapsilosis was 0.125 µg/mL (≈ 0.29 µM); against Candida tropicalis, 0.25 µg/mL (≈ 0.58 µM); in the assay with Kluyveromyces marxianus, 0.0625 µg/mL (≈ 0.145 µM); against Trichophyton rubrum it was 0.125 µg/mL (≈ 0.29 µM); in the assay with Aspergillus fumigatus, 8 µg/mL (≈ 18.6 µM); against Candida albicans [1] it was < 0.125 µg/mL. Also, the figures for the MIC80 with Candida albicans [2] and against Cryptococcus neoformans were 0.0625 µg/mL (≈ 0.145 µM) and 0.5 µg/mL (≈ 1.16 µM), respectively.
With `OC(Cc1cn(Cc2cc(Cl)cc(Cl)c2)nn1)(Cn1cncn1)c1ccc(F)cc1F` (stereo unspecified), the MIC80 is 0.25 µg/mL (≈ 0.537 µM) with Candida parapsilosis; 0.25 µg/mL (≈ 0.537 µM) in the assay with Candida tropicalis; 0.5 µg/mL (≈ 1.07 µM) in the assay with Kluyveromyces marxianus; < 0.125 µg/mL against Trichophyton rubrum; 32 µg/mL (≈ 68.8 µM) against Aspergillus fumigatus; 0.25 µg/mL (≈ 0.537 µM) against Candida albicans [1]. Further, the MIC80 in the assay on Candida albicans [2] came out at 0.125 µg/mL (≈ 0.269 µM); in the assay on Cryptococcus neoformans, 1 µg/mL (≈ 2.15 µM).
With `Cc1cccc(Cn2cc(CC(O)(Cn3cncn3)c3ccc(F)cc3F)nn2)c1` (stereo unspecified), the MIC80 came out at 0.0625 µg/mL (≈ 0.152 µM) in the assay with Candida parapsilosis; 0.125 µg/mL (≈ 0.305 µM) with Candida tropicalis; 0.0156 µg/mL (≈ 0.038 µM) against Kluyveromyces marxianus; 0.0625 µg/mL (≈ 0.152 µM) against Trichophyton rubrum; 4 µg/mL (≈ 9.75 µM) with Aspergillus fumigatus; 0.0625 µg/mL (≈ 0.152 µM) against Candida albicans [1]. Besides, the MIC80 worked out at 0.0156 µg/mL (≈ 0.038 µM) in the assay on Candida albicans [2] and 0.125 µg/mL (≈ 0.305 µM) against Cryptococcus neoformans.
Turning to `O=[N+]([O-])c1ccc(Cn2cc(CC(O)(Cn3cncn3)c3ccc(F)cc3F)nn2)cc1` (stereo unspecified), the MIC80 with Candida parapsilosis is 0.25 µg/mL (≈ 0.566 µM); in the assay with Candida tropicalis it was 0.125 µg/mL (≈ 0.283 µM); with Kluyveromyces marxianus, 0.0625 µg/mL (≈ 0.142 µM); against Trichophyton rubrum, 0.25 µg/mL (≈ 0.566 µM); against Aspergillus fumigatus it was 16 µg/mL (≈ 36.2 µM); in the assay on Candida albicans [1], < 0.125 µg/mL. Besides, the MIC80 was determined as 0.0625 µg/mL (≈ 0.142 µM) against Candida albicans [2] and 0.5 µg/mL (≈ 1.13 µM) against Cryptococcus neoformans.
With `OC(Cn1cncn1)(Cn1cncn1)c1ccc(F)cc1F` [FLUCONAZOLE], the MIC80 amounted to 0.5 µg/mL (≈ 1.63 µM) in the assay with Candida parapsilosis; 1 µg/mL (≈ 3.27 µM) in the assay with Candida tropicalis; 4 µg/mL (≈ 13.1 µM) against Kluyveromyces marxianus; 1 µg/mL (≈ 3.27 µM) in the assay with Trichophyton rubrum; 64 µg/mL (≈ 209 µM) against Aspergillus fumigatus; 0.5 µg/mL (≈ 1.63 µM) in the assay on Candida albicans [1]. For the same molecule, the MIC80 is 0.5 µg/mL (≈ 1.63 µM) with Candida albicans [2] and 1 µg/mL (≈ 3.27 µM) in the assay on Cryptococcus neoformans.
With `N#Cc1cccc(Cn2cc(CC(O)(Cn3cncn3)c3ccc(F)cc3F)nn2)c1` (stereo unspecified), the MIC80 against Candida parapsilosis is 0.25 µg/mL (≈ 0.593 µM); in the assay on Candida tropicalis it was 0.125 µg/mL (≈ 0.297 µM); in the assay on Kluyveromyces marxianus, < 0.125 µg/mL; in the assay with Trichophyton rubrum it was 0.25 µg/mL (≈ 0.593 µM); with Aspergillus fumigatus it was 32 µg/mL (≈ 75.9 µM); against Candida albicans [1] it was 0.125 µg/mL (≈ 0.297 µM). Besides, the MIC80 against Candida albicans [2] turned out to be 0.0625 µg/mL (≈ 0.148 µM); in the assay on Cryptococcus neoformans, 1 µg/mL (≈ 2.37 µM).
As to `C[C@@H](c1ncncc1F)[C@](O)(Cn1cncn1)c1ccc(F)cc1F` [VORICONAZOLE], the MIC80 was 0.0039 µg/mL (≈ 0.0112 µM) in the assay with Candida parapsilosis; 0.0039 µg/mL (≈ 0.0112 µM) against Candida tropicalis; 0.0625 µg/mL (≈ 0.179 µM) in the assay on Kluyveromyces marxianus; 0.0156 µg/mL (≈ 0.0447 µM) against Trichophyton rubrum; 0.0156 µg/mL (≈ 0.0447 µM) in the assay on Aspergillus fumigatus; 0.0625 µg/mL (≈ 0.179 µM) with Candida albicans [1]. Moreover, the MIC80 stood at 0.0625 µg/mL (≈ 0.179 µM) against Candida albicans [2] and 0.0039 µg/mL (≈ 0.0112 µM) with Cryptococcus neoformans.
Regarding `OC(Cc1cn(Cc2ccccc2)nn1)(Cn1cncn1)c1ccc(F)cc1F` (stereo unspecified), the MIC80 in the assay with Candida parapsilosis is 0.0625 µg/mL (≈ 0.158 µM); against Candida tropicalis, 0.0625 µg/mL (≈ 0.158 µM); against Kluyveromyces marxianus, < 0.125 µg/mL; in the assay on Trichophyton rubrum, 0.25 µg/mL (≈ 0.631 µM); against Aspergillus fumigatus it was 16 µg/mL (≈ 40.4 µM); against Candida albicans [1], 0.125 µg/mL (≈ 0.315 µM). For the same molecule, the MIC80 was 0.0625 µg/mL (≈ 0.158 µM) in the assay with Candida albicans [2] and < 0.25 µg/mL in the assay on Cryptococcus neoformans.
In the case of `OC(Cc1cn(Cc2ccc(Br)cc2)nn1)(Cn1cncn1)c1ccc(F)cc1F` (stereo unspecified), the MIC80 in the assay on Candida parapsilosis stood at 0.125 µg/mL (≈ 0.263 µM); against Candida tropicalis, 0.25 µg/mL (≈ 0.526 µM); in the assay on Kluyveromyces marxianus, 0.0625 µg/mL (≈ 0.131 µM); in the assay with Trichophyton rubrum it was 0.125 µg/mL (≈ 0.263 µM); against Aspergillus fumigatus it was 8 µg/mL (≈ 16.8 µM); in the assay with Candida albicans [1], 0.0625 µg/mL (≈ 0.131 µM). For the same molecule, the MIC80 in the assay with Candida albicans [2] is 0.0625 µg/mL (≈ 0.131 µM); in the assay on Cryptococcus neoformans, 0.25 µg/mL (≈ 0.526 µM).
Take `CC(=O)N1CCN(c2ccc(OCC3COC(Cn4ccnc4)(c4ccc(Cl)cc4Cl)O3)cc2)CC1` (stereo unspecified) [KETOCONAZOLE]: the MIC80 against Candida parapsilosis was 0.0039 µg/mL (≈ 0.00734 µM); against Candida tropicalis it was 0.0039 µg/mL (≈ 0.00734 µM); in the assay with Kluyveromyces marxianus, 0.0625 µg/mL (≈ 0.118 µM); in the assay on Trichophyton rubrum it was 0.0156 µg/mL (≈ 0.0294 µM); against Aspergillus fumigatus, 0.0156 µg/mL (≈ 0.0294 µM); with Candida albicans [1], 0.0625 µg/mL (≈ 0.118 µM). Besides, the MIC80 against Candida albicans [2] turned out to be 0.0625 µg/mL (≈ 0.118 µM); against Cryptococcus neoformans, 0.0156 µg/mL (≈ 0.0294 µM).
For `OC(Cc1cn(Cc2ccc(Cl)cc2)nn1)(Cn1cncn1)c1ccc(F)cc1F` (stereo unspecified), the MIC80 is 0.125 µg/mL (≈ 0.29 µM) with Candida parapsilosis; 0.5 µg/mL (≈ 1.16 µM) in the assay on Candida tropicalis; 0.0625 µg/mL (≈ 0.145 µM) in the assay with Kluyveromyces marxianus; 0.125 µg/mL (≈ 0.29 µM) in the assay on Trichophyton rubrum; 4 µg/mL (≈ 9.28 µM) with Aspergillus fumigatus; < 0.125 µg/mL with Candida albicans [1]. In addition, the values for the MIC80 against Candida albicans [2] and in the assay with Cryptococcus neoformans were 0.0625 µg/mL (≈ 0.145 µM) and 0.25 µg/mL (≈ 0.58 µM), respectively.
With `OC(Cc1cn(Cc2ccccc2F)nn1)(Cn1cncn1)c1ccc(F)cc1F` (stereo unspecified), the MIC80 against Candida parapsilosis is 0.125 µg/mL (≈ 0.302 µM); in the assay on Candida tropicalis it was 0.0625 µg/mL (≈ 0.151 µM); with Kluyveromyces marxianus, 0.0625 µg/mL (≈ 0.151 µM); in the assay on Trichophyton rubrum, 0.125 µg/mL (≈ 0.302 µM); in the assay with Aspergillus fumigatus it was 16 µg/mL (≈ 38.6 µM); in the assay with Candida albicans [1] it was 0.0625 µg/mL (≈ 0.151 µM). Moreover, the MIC80 came to 0.0625 µg/mL (≈ 0.151 µM) against Candida albicans [2] and 0.125 µg/mL (≈ 0.302 µM) in the assay on Cryptococcus neoformans.
